Results on three molecules are retold here after patent publication US20240180891A1, “SYNERGISTIC MODULATORS OF ALPHA-DICARBONYL DETOXIFICATION AND THEIR USE FOR INDUCING WEIGHT LOSS AND THE TREATMENT OF DIABETIC PATHOLOGIES” (Buck Institute for Research on Aging, priority 2020, published 2024).

For assay [1] the following is noted: single compounds; cited from earlier work.
For assay [2] the following is noted: recent human trial (Bierhaus et al.); cited from earlier work.
The next assay deals with C. elegans glod-4 mutant. As to the kind of experiment: C. elegans glod-4 mutant screen of natural product library for compounds mitigating MGO toxicity. To be noted: C. elegans and mammalian neuronal cells; Tim Tec NPL-640 library. Type of assay: in vivo. An excerpt:
(§1) We used C. elegans to screen for compounds that mitigate the detrimental phenotypes in the worm glod-4 mutant. […] This included alpha-lipoic acid (ALA), a drug already prescribed for diabetic neuropathy in certain countries (see, e.g., Giacco et al. (2014) Diabetes 63: 291-299).

Assay [3] concerns the target T1, transient receptor potential cation channel (TRPA1) (Caenorhabditis elegans, UniProt Q18297).
T1 sequence (Q18297 1-1211): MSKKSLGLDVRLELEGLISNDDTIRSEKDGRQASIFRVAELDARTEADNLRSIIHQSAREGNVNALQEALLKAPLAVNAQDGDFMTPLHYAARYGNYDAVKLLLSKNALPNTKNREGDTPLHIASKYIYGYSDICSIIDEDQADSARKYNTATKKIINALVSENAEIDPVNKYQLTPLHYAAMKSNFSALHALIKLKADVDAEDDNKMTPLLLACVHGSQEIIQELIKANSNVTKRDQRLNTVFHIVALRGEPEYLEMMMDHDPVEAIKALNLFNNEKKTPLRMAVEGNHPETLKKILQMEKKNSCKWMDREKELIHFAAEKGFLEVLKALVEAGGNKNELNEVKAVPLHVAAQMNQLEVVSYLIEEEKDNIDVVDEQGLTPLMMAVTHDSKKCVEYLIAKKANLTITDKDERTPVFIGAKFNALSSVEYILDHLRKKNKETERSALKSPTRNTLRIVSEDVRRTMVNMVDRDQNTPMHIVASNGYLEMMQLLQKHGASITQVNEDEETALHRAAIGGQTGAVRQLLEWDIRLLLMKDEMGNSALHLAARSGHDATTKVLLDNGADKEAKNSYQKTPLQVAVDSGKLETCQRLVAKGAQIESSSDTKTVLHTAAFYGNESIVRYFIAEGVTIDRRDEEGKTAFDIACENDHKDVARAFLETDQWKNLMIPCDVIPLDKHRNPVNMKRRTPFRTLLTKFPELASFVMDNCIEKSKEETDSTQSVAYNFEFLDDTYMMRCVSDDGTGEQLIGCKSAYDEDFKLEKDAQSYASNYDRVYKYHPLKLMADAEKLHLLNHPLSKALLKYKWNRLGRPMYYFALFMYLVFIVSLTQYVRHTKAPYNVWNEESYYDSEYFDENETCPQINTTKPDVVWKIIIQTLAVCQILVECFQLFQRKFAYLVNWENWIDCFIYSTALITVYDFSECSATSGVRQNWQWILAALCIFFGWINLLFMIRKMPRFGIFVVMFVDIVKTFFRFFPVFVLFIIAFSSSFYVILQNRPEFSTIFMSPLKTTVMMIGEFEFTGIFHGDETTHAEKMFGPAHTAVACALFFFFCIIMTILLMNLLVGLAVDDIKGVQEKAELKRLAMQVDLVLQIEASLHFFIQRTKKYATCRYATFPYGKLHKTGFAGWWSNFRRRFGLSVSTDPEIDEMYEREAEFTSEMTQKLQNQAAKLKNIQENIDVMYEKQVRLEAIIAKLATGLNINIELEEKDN
The assay is described as follows: ALA mechanism: TRPA1 activation and glyoxalase expression. On the set-up: species or system C. elegans.
From the text: FIG. 4 illustrates a proposed model for how MGO is sensed by TRPA1 to activate SKN-1/Nrf2 and mediate detoxification of MGO through downstream glyoxalases in worms and mammals. MGO is sensed by TRPA-1 leading to the activation of SKN-1/Nrf2 pathway. This in turn activates downstream glyoxalases GLO1 and DJ1 (Id.).
as §1

A further assay deals with C57BL/6 mice. On the procedure:
Percent weight increases indicate the percent change from starting body weights to the weights at the end of the two-week diet. Daily food consumption was measured twice weekly.
Next, we tested if MG-H1, which is detectable in human CSF and serum (Monnier et al. (2005) Ann. N. Y. Acad. Sci. 1043: 567-581), influences feeding in mice. We gave 12 week-old WT mice 100 μM or 200 μM MG-H1 via supplementation of drinking water for two weeks.

For the next assay, the system named is C. elegans. The conditions noted are these: feeding of AGE, data not shown. An excerpt:
MGO-derived AGEs have been found in proteins with aging and in age-related diseases (see, e.g., Li et al. (2012) J. Neurol. Sci. 317: 1-5; Cone (2005) Nat. Neurosci. 8: 571-578; Mitchell et al. (2017) Oncotarget, 8: 17453-17474; Li et al. (2012) Neurobiol. Aging 33: 1400-1410). […] To investigate the impact of specific AGEs, we provided synthesized individual AGEs and examined their biological effects. We adapted published procedures to synthesize four AGEs on a gram scale: carboxymethyl-lysine (CML), carboxyethyl-lysine (CEL), fructose-lysine (F-Ly), and methylglyoxal-derived hydroimidazolone MG-H1. CEL and MG-H1 are MGO derived AGEs while CML is glyoxal derived, and F-LY is glucose derived.

Setting [4] is: higher dose (200 μM) in drinking water, two weeks.

Turning to `NC(=O)c1cccnc1` [nicotinamide], the protection against obesity result in assay [1] is reported as “protect against obesity”.

For the molecule `O=C(O)CCCCC1CCSS1` (stereo not drawn) [alpha-lipoic acid, 1,2-dithiolane-3-pentanoic acid], the weight result in assay [2] is “effectiveness in reducing weight”. Further, the protection against obesity result in assay [1] is “protect against obesity”. Also, in the assay on C. elegans glod-4 mutant, the “amelioration of deleterious effects of MGO toxicity” value is listed as “ameliorate the deleterious effects of MGO toxicity”. In assay [3], the TRPA1 activation result is on record as “activates”; the “expression of glyoxalases (DJ1 and GLO1)” value is listed as “enhancing the expression”.

On to `CC1NC(NCCC[C@H](N)C(=O)O)=NC1=O` (some centres unmarked) [MG-H1, hydroimidazolone Nδ-(5-hydro-5-methyl-4-imidazolon-2-yl) ornithine], for which, in the assay with C57BL/6 mice (data not shown), the hourly food intake entry is given as “increase in hourly food intake” and the water intake result is given as “relatively similar water intake”. In the assay with C57BL/6 mice (higher dose), the energy expenditure entry is reported as “reactive increase” and the oxygen consumption result is on record as “reactive increase”. Further, in the assay on C57BL/6 mice (setting [4]), the body weights result is on record as “significant increase” and the food intake entry is on record as “significant increase”. In addition, in the assay with C. elegans, the food intake result was “enhances food intake” and the triglyceride content entry is on record as “increases triglyceride content”.
